{
  "source": "patent US9029593B2",
  "about": "“Method for manufacturing spilanthol and intermediate manufacturing product therefor” (Takasago International Corporation, priority 2009, dated 2015)",
  "key": {"[1]": {"assay": "Thermal stability evaluation of crude product at 180° C. (GC, hexadecane internal standard)", "format": "physicochemical", "conditions": "crude product before distillation, stirring at 180° C. in a stream of nitrogen, after 3 hours, GC area ratio vs hexadecane", "procedure": "The crude product of N-isobutyl-2,6,8-decatrienamide obtained in Example 2 before the distillation and the crude product obtained in Comparative Example 1 were compared as follows in terms of thermal stability at 180° C. assuming distillation at high temperature.\nIn a stream of nitrogen, 1 g of each of the crude products was put into a flask together with 0.1 g of hexadecane as an internal standard substance, followed by stirring at 180° C. for […]. By gas chromatography, the area ratio of N-isobutyl-2,6,8-decatrienamide was compared with the area ratio of the internal standard substance to measure the remaining percentage of N-isobutyl-2,6,8-decatrienamide."}, "[2]": {"assay": "Sensory evaluation of aqueous solutions containing 10 ppm of N-isobutyl-2,6,8-decatrienamide", "format": "in vivo", "conditions": "aqueous solution containing 10 ppm", "procedure": "The sensory evaluation was performed using aqueous solutions respectively containing 10 ppm of N-isobutyl-2,6,8-decatrienamide obtained in Example 2 and Comparative Example 1."}},
  "note": "“Also recorded” adds a separate entry of the source.",
  "data": [
    {"smiles": "CC=CC=CCCC=CC(=O)NCC(C)C", "note": "[Comparative Example 1, N-isobutyl-2,6,8-decatrienamide, reference compound]", "values": [
      {"measurement": "remaining percentage of N-isobutyl-2,6,8-decatrienamide", "setting": "[1]", "result": 89, "unit": "%"}
    ]},
    {"smiles": "CC=CC=CCC/C=C/C(=O)NCC(C)C", "note": "(racemic) [Example 2, N-isobutyl-2,6,8-decatrienamide]", "values": [
      {"measurement": "Sensory evaluation (numbing and astringent actions)", "setting": "[2]", "result": "excellent numbing and astringent actions; also recorded: clear and strong"},
      {"measurement": "remaining percentage of N-isobutyl-2,6,8-decatrienamide", "setting": "[1]", "result": 98, "unit": "%"}
    ]}
  ]
}
